Data from ChEMBL document CHEMBL4118157, “Efficiency of newly prepared thiazole derivatives against some cutaneous fungi” (2018).
In brackets after ≈: the same amount, converted by molar mass.

Tests used:
Candida albicans [1] = assay: Antifungal activity against Candida albicans after 48 hrs by broth microdilution method; format: functional
Nannizzia gypsea [2] = assay: Antifungal activity against Microsporum gypseum after 72 hrs by broth microdilution method; format: functional
[3] = tested on: Trichophyton mentagrophytes; assay: Antifungal activity against Trichophyton mentagrophytes after 72 hrs by broth microdilution method; format: functional
Candida albicans [4] = assay: Fungicidal activity against Candida albicans measured after 72 hrs; format: functional
Nannizzia gypsea [5] = assay: Fungicidal activity against Microsporum gypseum measured after 96 hrs; format: functional
[6] = tested on: Trichophyton mentagrophytes; assay: Fungicidal activity against Trichophyton mentagrophytes measured after 96 hrs; format: functional
Candida albicans [7] = assay: Inhibition of Candida albicans keratinase activity at 8 ppm incubated for 5 days under non-shaking condition and subsequent incubation for 5 days under shaking condition by UV-vis spectrophotometric analysis relative to control
Nannizzia gypsea [8] = assay: Inhibition of Microsporum gypseum keratinase activity at 8 ppm incubated for 5 days under non-shaking condition and subsequent incubation for 5 days under shaking condition by UV-vis spectrophotometric analysis relative to control
[9] = tested on: Trichophyton mentagrophytes; assay: Inhibition of Trichophyton mentagrophytes keratinase activity at 16 ppm incubated for 5 days under non-shaking condition and subsequent incubation for 5 days under shaking condition by UV-vis spectrophotometric analysis relative to control
Trichophyton terrestre = assay: Inhibition of Trichophyton terrestre keratinase activity at 10 ug/ml incubated for 5 days under non-shaking condition and subsequent incubation for 5 days under shaking condition by UV-vis spectrophotometric analysis relative to control
Nannizzia gypsea [10] = assay: Inhibition of Microsporum gypseum keratinase activity at 10 ug/ml incubated for 5 days under non-shaking condition and subsequent incubation for 5 days under shaking condition by UV-vis spectrophotometric analysis relative to control
Trichophyton rubrum = assay: Inhibition of Trichophyton rubrum keratinase activity at 10 ug/ml incubated for 5 days under non-shaking condition and subsequent incubation for 5 days under shaking condition by UV-vis spectrophotometric analysis relative to control
Epidermophyton floccosum = assay: Inhibition of Epidermophyton floccosum keratinase activity at 10 ug/ml incubated for 5 days under non-shaking condition and subsequent incubation for 5 days under shaking condition by UV-vis spectrophotometric analysis relative to control
Fungi [11] = assay: Inhibition of fungal keratinase activity at 10 mg/ml relative to control
Candida albicans [12] = assay: Inhibition of Candida albicans keratinase activity at 2 ppm incubated for 5 days under non-shaking condition and subsequent incubation for 5 days under shaking condition by UV-vis spectrophotometric analysis relative to control
Nannizzia gypsea [13] = assay: Inhibition of Microsporum gypseum keratinase activity at 4 ppm incubated for 5 days under non-shaking condition and subsequent incubation for 5 days under shaking condition by UV-vis spectrophotometric analysis relative to control
[14] = tested on: Trichophyton mentagrophytes; assay: Inhibition of Trichophyton mentagrophytes keratinase activity at 4 ppm incubated for 5 days under non-shaking condition and subsequent incubation for 5 days under shaking condition by UV-vis spectrophotometric analysis relative to control
Candida albicans [15] = assay: Antifungal activity against Candida albicans infected in guinea pig skin assessed as recovery from infection at 10 mg/g administered once daily via superficial route for 15 days measured after 30 days post last dose relative to control; format: functional
Nannizzia gypsea [16] = assay: Antifungal activity against Microsporum gypseum infected in guinea pig skin assessed as recovery from infection at 10 mg/g administered once daily via superficial route for 15 days measured after 30 days post last dose relative to control; format: functional
[17] = tested on: Trichophyton mentagrophytes; assay: Antifungal activity against Trichophyton mentagrophytes infected in guinea pig skin assessed as recovery from infection at 10 mg/g administered once daily via superficial route for 15 days measured after 30 days post last dose relative to control; format: functional
Candida albicans [18] = assay: Inhibition of Candida albicans keratinase activity at MIC incubated for 5 days under non-shaking condition and subsequent incubation for 5 days under shaking condition by UV-vis spectrophotometric analysis relative to control
Nannizzia gypsea [19] = assay: Inhibition of Microsporum gypseum keratinase activity at MIC incubated for 5 days under non-shaking condition and subsequent incubation for 5 days under shaking condition by UV-vis spectrophotometric analysis relative to control
[20] = tested on: Trichophyton mentagrophytes; assay: Inhibition of Trichophyton mentagrophytes keratinase activity at MIC incubated for 5 days under non-shaking condition and subsequent incubation for 5 days under shaking condition by UV-vis spectrophotometric analysis relative to control
Candida albicans [21] = assay: Antifungal activity against Candida albicans; format: functional
[22] = tested on: Trichophyton mentagrophytes; assay: Antifungal activity against Trichophyton mentagrophytes; format: functional
Fungi [23] = assay: Inhibition of fungal keratinase activity at 0.1 to 10 mg/ml relative to control
Candida albicans [24] = assay: Inhibition of ergosterol biosynthesis in Candida albicans at MIC by spectrophotometric method relative to control; format: functional
Nannizzia gypsea [25] = assay: Inhibition of ergosterol biosynthesis in Microsporum gypseum at MIC by spectrophotometric method relative to control; format: functional
[26] = tested on: Trichophyton mentagrophytes; assay: Inhibition of ergosterol biosynthesis in Trichophyton mentagrophytes at MIC by spectrophotometric method relative to control; format: functional

Compound	MIC (Candida albicans [1])	MIC (Nannizzia gypsea [2])	MIC [3]	MFC (Candida albicans [4])	MFC (Nannizzia gypsea [5])	MFC [6]	further results
CN1CCC(=NNC2=NC(=O)/C(=N\Nc3ccc([N+](=O)[O-])cc3)S2)CC1	64 µg/mL (≈ 170 µM)	128 µg/mL (≈ 341 µM)	128 µg/mL (≈ 341 µM)	256 µg/mL (≈ 682 µM)	> 256 µg/mL	> 256 µg/mL	–
CN1CCC(=NNc2nc(-c3ccccc3)c(/N=N/c3ccc([N+](=O)[O-])cc3)s2)CC1	8 µg/mL (≈ 18.4 µM)	8 µg/mL (≈ 18.4 µM)	16 µg/mL (≈ 36.7 µM)	16 µg/mL (≈ 36.7 µM)	32 µg/mL (≈ 73.5 µM)	32 µg/mL (≈ 73.5 µM)	inhibition (Candida albicans [7]): 66.1 to 92.2%; inhibition (Nannizzia gypsea [8]): 66.1 to 92.2%; inhibition [9]: 66.1 to 92.2%
Cc1nc(NN=C2CCN(C)CC2)sc1/N=N/c1ccc(Cl)cc1	16 µg/mL (≈ 44.1 µM)	16 µg/mL (≈ 44.1 µM)	16 µg/mL (≈ 44.1 µM)	32 µg/mL (≈ 88.2 µM)	128 µg/mL (≈ 353 µM)	128 µg/mL (≈ 353 µM)	–
COc1ccc(/N=N/c2sc(NN=C3CCN(C)CC3)nc2C)cc1	64 µg/mL (≈ 179 µM)	128 µg/mL (≈ 357 µM)	128 µg/mL (≈ 357 µM)	128 µg/mL (≈ 357 µM)	256 µg/mL (≈ 714 µM)	> 256 µg/mL	–
Cc1ccc(/N=N/c2sc(NN=C3CCN(C)CC3)nc2-c2ccccc2)cc1	2 µg/mL (≈ 4.94 µM)	4 µg/mL (≈ 9.89 µM)	4 µg/mL (≈ 9.89 µM)	4 µg/mL (≈ 9.89 µM)	8 µg/mL (≈ 19.8 µM)	16 µg/mL (≈ 39.6 µM)	–
CN1CCC(=NNC2=NC(=O)/C(=N\Nc3ccc(Cl)cc3)S2)CC1	64 µg/mL (≈ 175 µM)	128 µg/mL (≈ 351 µM)	128 µg/mL (≈ 351 µM)	128 µg/mL (≈ 351 µM)	256 µg/mL (≈ 702 µM)	> 256 µg/mL	–
CN(C/C=C/C#CC(C)(C)C)Cc1cccc2ccccc12	–	–	–	–	–	–	inhibition (Trichophyton terrestre): 66%; inhibition (Nannizzia gypsea [10]): 71.9%; inhibition (Trichophyton rubrum): 51.7%; inhibition (Epidermophyton floccosum): 72.3%
CN1CCC(=NNc2nc(-c3ccccc3)c(/N=N/c3ccc(Cl)cc3)s2)CC1	4 µg/mL (≈ 9.41 µM)	4 µg/mL (≈ 9.41 µM)	8 µg/mL (≈ 18.8 µM)	8 µg/mL (≈ 18.8 µM)	16 µg/mL (≈ 37.7 µM)	32 µg/mL (≈ 75.3 µM)	–
Cc1nc(NN=C2CCN(C)CC2)sc1/N=N/c1ccc(Cl)cc1Cl	16 µg/mL (≈ 40.3 µM)	64 µg/mL (≈ 161 µM)	64 µg/mL (≈ 161 µM)	128 µg/mL (≈ 322 µM)	128 µg/mL (≈ 322 µM)	> 256 µg/mL	–
Cc1nc(NN=C2CCN(C)CC2)sc1/N=N/c1ccccc1Cl	32 µg/mL (≈ 88.2 µM)	64 µg/mL (≈ 176 µM)	64 µg/mL (≈ 176 µM)	128 µg/mL (≈ 353 µM)	256 µg/mL (≈ 705 µM)	> 256 µg/mL	–
Cc1ccc(/N=N/c2sc(NN=C3CCN(C)CC3)nc2C)cc1	16 µg/mL (≈ 46.7 µM)	32 µg/mL (≈ 93.4 µM)	32 µg/mL (≈ 93.4 µM)	64 µg/mL (≈ 187 µM)	128 µg/mL (≈ 374 µM)	256 µg/mL (≈ 748 µM)	–
Cc1ccccc1/N=N/c1sc(NN=C2CCN(C)CC2)nc1C	8 µg/mL (≈ 23.4 µM)	32 µg/mL (≈ 93.4 µM)	32 µg/mL (≈ 93.4 µM)	32 µg/mL (≈ 93.4 µM)	64 µg/mL (≈ 187 µM)	128 µg/mL (≈ 374 µM)	–
c1ccc(-c2ccc(C(c3ccccc3)n3ccnc3)cc2)cc1 (stereo not drawn)	–	–	–	–	–	–	inhibition (Fungi [11]): 50%
COc1ccc(/N=N/c2sc(NN=C3CCN(C)CC3)nc2-c2ccccc2)cc1	2 µg/mL (≈ 4.76 µM)	4 µg/mL (≈ 9.51 µM)	4 µg/mL (≈ 9.51 µM)	4 µg/mL (≈ 9.51 µM)	8 µg/mL (≈ 19 µM)	32 µg/mL (≈ 76.1 µM)	inhibition (Candida albicans [12]): 88.8 to 95%; inhibition (Nannizzia gypsea [13]): 88.8 to 95%; inhibition [14]: 88.8 to 95%; Activity (Candida albicans [15]): 100%; Activity (Nannizzia gypsea [16]): 92%; Activity [17]: 85%
CN1CCC(=NNC2=NC(=O)/C(=N\Nc3cccc(Cl)c3)S2)CC1	32 µg/mL (≈ 87.7 µM)	64 µg/mL (≈ 175 µM)	128 µg/mL (≈ 351 µM)	128 µg/mL (≈ 351 µM)	256 µg/mL (≈ 702 µM)	> 256 µg/mL	–
OC(Cn1cncn1)(Cn1cncn1)c1ccc(F)cc1F [FLUCONAZOLE]	8 µg/mL (≈ 26.1 µM)	8 µg/mL (≈ 26.1 µM)	16 µg/mL (≈ 52.2 µM)	32 µg/mL (≈ 104 µM)	64 µg/mL (≈ 209 µM)	64 µg/mL (≈ 209 µM)	inhibition (Candida albicans [18]): 61.3 to 72.9%; inhibition (Nannizzia gypsea [19]): 61.3 to 72.9%; inhibition [20]: 61.3 to 72.9%; Activity (Candida albicans [15]): 97%; Activity (Nannizzia gypsea [16]): 84%; Activity [17]: 77%; MIC (Candida albicans [21]): 0.34 µg/mL (≈ 1.11 µM); MIC [22]: 23.9 µg/mL (≈ 78 µM)
CN1CCC(=NNc2nc(-c3ccccc3)c(/N=N/c3ccccc3)s2)CC1	2 µg/mL (≈ 5.12 µM)	4 µg/mL (≈ 10.2 µM)	4 µg/mL (≈ 10.2 µM)	4 µg/mL (≈ 10.2 µM)	16 µg/mL (≈ 41 µM)	16 µg/mL (≈ 41 µM)	inhibition (Candida albicans [12]): 77 to 94%; inhibition (Nannizzia gypsea [13]): 77 to 94%; inhibition [14]: 77 to 94%
N#C/C(=C1/SCC(c2ccccc2Cl)S1)n1ccnc1 (stereo not drawn)	–	–	–	–	–	–	inhibition (Fungi [23]): 40 to 70%
CN1CCC(=NNC2=NC(=O)/C(=N\Nc3ccccc3)S2)CC1	2 µg/mL (≈ 6.05 µM)	4 µg/mL (≈ 12.1 µM)	4 µg/mL (≈ 12.1 µM)	4 µg/mL (≈ 12.1 µM)	8 µg/mL (≈ 24.2 µM)	16 µg/mL (≈ 48.4 µM)	inhibition (Candida albicans [12]): 96%; inhibition (Nannizzia gypsea [13]): 94%; inhibition [14]: 91.4%; inhibition (INH) (Candida albicans [24]): 73.3%; inhibition (INH) (Nannizzia gypsea [25]): 86.4%; inhibition (INH) [26]: 74.3%; Activity (Candida albicans [15]): 100%; Activity (Nannizzia gypsea [16]): 91%; Activity [17]: 87%
Cc1nc(NN=C2CCN(C)CC2)sc1/N=N/c1ccc([N+](=O)[O-])cc1	64 µg/mL (≈ 171 µM)	128 µg/mL (≈ 343 µM)	128 µg/mL (≈ 343 µM)	256 µg/mL (≈ 686 µM)	> 256 µg/mL	> 256 µg/mL	inhibition (Candida albicans [18]): 10.1 to 31.4%; inhibition (Nannizzia gypsea [19]): 10.1 to 31.4%; inhibition [20]: 10.1 to 31.4%; inhibition (INH) (Candida albicans [24]): 28.5%; inhibition (INH) (Nannizzia gypsea [25]): 33.1%; inhibition (INH) [26]: 21.4%
Cc1nc(NN=C2CCN(C)CC2)sc1/N=N/c1cccc(Cl)c1	32 µg/mL (≈ 88.2 µM)	64 µg/mL (≈ 176 µM)	128 µg/mL (≈ 353 µM)	128 µg/mL (≈ 353 µM)	256 µg/mL (≈ 705 µM)	> 256 µg/mL	–
Cc1nc(NN=C2CCN(C)CC2)sc1/N=N/c1ccccc1	16 µg/mL (≈ 48.7 µM)	64 µg/mL (≈ 195 µM)	64 µg/mL (≈ 195 µM)	128 µg/mL (≈ 390 µM)	128 µg/mL (≈ 390 µM)	245 µg/mL (≈ 746 µM)	inhibition (Candida albicans [18]): 33.4 to 46.3%; inhibition (Nannizzia gypsea [19]): 33.4 to 46.3%; inhibition [20]: 33.4 to 46.3%
